Assay results reported in patent publication US9682928B2 (NeuroPro Therapeutics, Inc., priority 2009, dated 2017).
“Also recorded” adds a separate entry of the source.

Key:
[1] = system: male Sprague Dawley rats; experiment: Taxol-induced peripheral neuropathy (rat), mechanical allodynia (von Frey); assay type: in vivo; details: gabapentin 100 mg/kg
Text: In this study, an animal model of Taxol-induced sensory neuropathy was employed to evaluate the effects of the sponsor's test compounds, for response to tactile sensitivity using von Frey test of mechanical allodynia. […] Therefore, Taxol-induced mechanical allodynia was employed as the measured behavioral endpoint.
The test substance was homogenized and dispersed using a mortar and a pestle in 0.2% hydroxypropylmethylcellulose (HPMC) in physiological saline, which served as the vehicle. Test articles were administered intraperitoneally in dose volumes of 10 mL/kg body weight. Preparations were made freshly for each day of administration.
Prior to test article NTP-2024 and vehicle control group administration, rats were pretreated at 30 minutes and again at 10 minutes prior to test article administration with a general metabolic inhibitor, piperonyl butoxide (150 mg/kg i.p.) in DMSO, at a volume of 1 mL/kg.
The reference article, Gabapentin, was formulated in saline to a concentration of 100 mg/mL and delivered […] at a dose volume of 1 mL/kg body weight (for a dosing concentration of 100 mg/kg).
All animals were administered Taxol, 2 mg/kg, IP at a dose volume of 1 mL/kg, on Days 1, 3, 5 and 7.
On Day 32, all animals received a single intraperitoneal injection of test article or vehicle according to Tables 1 and 2. For group 1 (vehicle), rats were pre-treated with Piperonyl butoxide (150 mg/kg IP, dose volume of 1 mL/kg) at 30 minutes and again at 10 minutes prior to vehicle administration. Four animals in group 3 (NTP-2024) were also pre-treated with Piperonyl butoxide (150 mg/kg IP, dose volume of 1 mL/kg) at 30 minutes and again at 10 minutes prior to vehicle administration. Animals in Groups 2, 3, 4, & 5 were pre-treated with Saline (dose volume of 1 mL/kg, IP) at 30 minutes and again at 10 minutes prior to test article administration. With the exception of animals in group 2, the animals received an IP injection of vehicle or test article 30 min prior to mechanical allodynia testing. Animals were dosed at a volume of 10 mL/kg.
Animals in group 2, received an IP injection of Gabapentin 90 minutes prior to mechanical allodynia testing. Animals were dosed at a volume of 1 mL/kg.
All animals underwent von Frey testing for mechanical allodynia. On testing days, the animals were returned to the chambers and allowed approximately 15 minutes to explore their surroundings prior to testing. A series of filaments were applied to the left hind paw. A 2.0 g filament was first applied to the plantar surface, if the animal responded to the filament (by lifting its paw) then the next smaller filament was applied. […] This is repeated in an “Up down” method for four responses after the first initial change in response.
The original study design used thermal hyperalgesia as the main parameter for testing the ability of the test compounds to ameliorate the pain associated with the Taxol injection. The treatment inclusion was set at a 20% drop from baseline values as determined on Day 28. […] The study design was amended to use mechanical allodynia as the testing parameter. […] This changed the testing days from Day 28 to Day 31 for allodynia confirmation and Day 29 to Day 32 for testing the article efficacy. Additional animals were received to complete the group size designation. These animals were tested for mechanical allodynia only. The study was then further amended to remove the piperonyl butoxide as a pre-treatment for Group 3 (NTP-2024). […] Because this study was conducted in two portions, four (4) animals from Group 3 received the metabolic inhibitor and five (5) received Saline as a pre-treatment.
The group mean results were analyzed versus the vehicle control group using a two way ANOVA, followed by a Bonferroni post-hoc test. Individual groups were tested pre and post dose using a paired t-test.

[2] = system: Male CD-1 mice; experiment: Chung (SNL) neuropathic pain study in mice; assay type: in vivo, mouse; details: high dose group (180 mg/kg NTP-2014; 100 mg/kg NTP-2026; gabapentin 100 mg/kg, i.p.)
[3] = system: Male Rj: NMRI mice; experiment: Formalin paw test (late phase) in the mouse; assay type: in vivo
Description: The method described herein detects analgesic/anti-inflammatory activity, generally used to test compounds for pain relief, in particular diabetic neuropathy or nociceptive neuropathy. See Wheeler-Aceto, et al. (1991) Psychopharmacology 104: 35-44.
Mice were given an intraplantar injection of 5% formalin (25 μl) into the posterior left paw. This treatment induces paw licking in control animals. Mice were briefly observed at 1 minute intervals between 15 and 50 minutes after the injection of formalin and the number of occasions that the mice were observed licking the injected paw was recorded. There were 10 mice per group and the test was performed “blind.”
The experiment included 11 groups. Data was analyzed by comparing treated groups with vehicle control using unpaired Mann-Whitney U tests.
Gabapentin (100 mg/kg i.p.) administered under the same experimental conditions, was used as reference substance. The experiment included several groups. Data was analyzed by comparing treated groups with vehicle control using unpaired Mann-Whitney U tests.

[4] = system: Male CD-1 mice; experiment: Chung (SNL) neuropathic pain study in mice; assay type: in vivo, mouse; details: mice, i.p., SNL
Text: Male CD-1 mice (25-35 g, Charles River) were used for all studies. Mice were housed in groups of five in Plexiglas chambers with food and water available ad libitum. All animals were maintained on a 12 hr light/dark cycle (lights on at 7:00 AM) in a temperature- and humidity-controlled animal colony. The health status of the animals used in this study was examined on arrival. Only animals in good health were acclimatized to laboratory conditions and used in the study. The acclimation period to the vivarium was a minimum of 7 days. All animal experiments were performed under an approved protocol in accordance with institutional guidelines and in accordance with the Guide for the Care and Use of Laboratory Animals as adopted and promulgated by the National Institutes of Health.
NTP has provided adequate amounts of NTP-2014 and NTP-2026 along with detailed instructions for preparing injection solutions. Gabapentin (Gallipot, St. Paul, Minn.) was dissolved in physiological saline. Injections were made using a 1-mL syringe with a 30-gauge needle at a volume of 10 ml/kg body weight. Animal body weights were measured prior to surgery and then on the morning of Day 7 (post-SNL testing). For i.p. drug administration, each mouse was firmly grasped by the nape of the neck and the tail was tucked between the last two fingers and palm of the technician's hand. The back of the mouse iwasarched slightly backwards exposing the abdominal region. The needle was inserted through the skin and abdominal musculature into the peritoneal cavity just off of the midline. Mice are immediately returned to the testing cage until behavioral testing.
NTP2026 (56, 100 and 180 mg/kg, i.p.); NTP 2014 (32, 56 and 100 mg/kg, i.p.); Gabapentin (100 mg/kg, i.p.); Vehicle Control (10% TPGS in benzoate buffer, i.p.).
SNL surgeries were performed based on the procedures described for rats (Kim and Chung, 1992) and modified for mice (Wang et al., 2001). Anesthesia was maintained with 0.5% halothane in O2 and body temperature was maintained using a heated water blanket. After surgical preparation of the mice, a 1-cm paraspinal incision was made at the level L4-S2. The L5 and L6 spinal nerves were exposed and tightly ligated using a 4-0 silk suture. The ligation was made distal to the dorsal root ganglion but before the fibers joined the sciatic nerve. The incisions were then closed, and animals are allowed to recover. […] Mechanical thresholds were determined by measuring the paw withdrawal threshold to probing with a series of calibrated von Frey filaments as described below.
Non-noxious sensory thresholds of the mice were determined by paw withdrawal […] to probing with a series of calibrated (0.02-2.34 gm on a logarithmic scale) von Frey filaments (“up and down” method) according to Chaplan et al. (1994) and analyzed using a Dixon (1980) nonparametric test. Results are expressed as the mean withdrawal thresholds. Baseline latencies/thresholds were determined prior to surgery, on the morning of Day 7, and then between 20-60 minutes post dosing with the test drugs. The post-drug time corresponds to the time of maximal activity for these compounds in the tail-flick assay.

Structure (SMILES): NCC1(CC(=O)O)CCCCC1 [Gabapentin, reference compound]
- Reversal of mechanical allodynia [1]: able to mitigate the mechanical allodynia; also recorded: significantly reverse
- Sedation [2]: minor sedation and incoordination
- Licking Score % Pain Decrease ([3]; gabapentin 100 mg/kg (584 μmol/kg)): 63%
- Licking Score (15 to 50 minutes post-formalin injection) % Change from Control ([3]; gabapentin 100 mg/kg i.p. (584 μmol/kg)): −63%
- Reversal of tactile hypersensitivity [4]: dose-dependent activity
